According to patent publication US20230167073A1 (Teijin Pharma Limited, priority 2020, published 2023):

target: T1, Human TRPC6 (Homo sapiens, UniProt Q9Y210); test: Evaluation of TRPC6 channel inhibitory activity (1), FLIPR Calcium 5 Assay Kit, OAG stimulation (Compound Nos. 1-1293); format: cell-based; details: Human TRPC6 stably-expressing cells, OAG 30 μM, FLIPR Calcium 5 Assay Kit; read-out: Inhibitory activity (pIC50 class) (converted)
T1 construct: expressed in transfected cells
T1 sequence (Q9Y210 1-931): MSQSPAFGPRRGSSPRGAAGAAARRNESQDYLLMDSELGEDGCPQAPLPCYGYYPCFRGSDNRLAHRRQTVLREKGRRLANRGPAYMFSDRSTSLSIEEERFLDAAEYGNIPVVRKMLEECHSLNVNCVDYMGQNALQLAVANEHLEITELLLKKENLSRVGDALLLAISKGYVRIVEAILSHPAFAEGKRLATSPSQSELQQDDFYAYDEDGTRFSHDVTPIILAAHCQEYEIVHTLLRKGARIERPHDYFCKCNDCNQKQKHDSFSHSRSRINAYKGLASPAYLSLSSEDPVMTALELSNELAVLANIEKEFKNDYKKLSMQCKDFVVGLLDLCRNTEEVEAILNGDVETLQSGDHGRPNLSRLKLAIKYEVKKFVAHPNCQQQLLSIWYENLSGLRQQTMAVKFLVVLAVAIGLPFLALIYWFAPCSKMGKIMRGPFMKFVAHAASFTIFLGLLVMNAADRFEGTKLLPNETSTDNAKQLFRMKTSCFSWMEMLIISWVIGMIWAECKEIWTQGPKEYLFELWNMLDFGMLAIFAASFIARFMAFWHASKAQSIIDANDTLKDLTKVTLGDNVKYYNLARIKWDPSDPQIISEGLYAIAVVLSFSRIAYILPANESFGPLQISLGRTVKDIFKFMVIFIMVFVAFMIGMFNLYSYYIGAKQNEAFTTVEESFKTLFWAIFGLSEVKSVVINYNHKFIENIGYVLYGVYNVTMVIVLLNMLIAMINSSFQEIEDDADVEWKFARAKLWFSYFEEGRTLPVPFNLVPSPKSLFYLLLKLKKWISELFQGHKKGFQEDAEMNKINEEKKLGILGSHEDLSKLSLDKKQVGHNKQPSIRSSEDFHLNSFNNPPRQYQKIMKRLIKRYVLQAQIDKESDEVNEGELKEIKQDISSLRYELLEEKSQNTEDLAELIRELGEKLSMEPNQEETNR
Method in brief: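 Readout is pIC50 from four-parameter logistic fitting of inhibition of the OAG-evoked (30 μM final) fluorescence calcium signal. Human TRPC6 stable cells are dye-loaded with probenecid, and compound is applied 20 min ahead of agonist.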

IC50 [nM] | Structure (SMILES)
< 10 | Cn1nc(-c2ccccn2)cc1Oc1cc(C#N)ccc1-c1ccc(C(O)CN)cc1 (stereo not shown) [Compound 161, 4-[4-(2-amino-1-hydroxyethyl)phenyl]-3-(2-methyl-5-pyridin-2-ylpyrazol-3-yl)oxybenzonitrile]
< 10 | Cn1nc(-c2ccccn2)cc1Oc1cc(C#N)ccc1-c1ccc(CCN)nc1 [Compound 162, 4-[6-(2-aminoethyl)pyridin-3-yl]-3-(2-methyl-5-pyridin-2-ylpyrazol-3-yl)oxybenzonitrile]
10 to 1000 | Cn1nc(-c2cccnc2)cc1Oc1cc(C#N)ccc1-c1ccc(CCN)cc1 [Compound 163, 4-[4-(2-aminoethyl)phenyl]-3-(2-methyl-5-pyridin-3-ylpyrazol-3-yl)oxybenzonitrile]
< 10 | Cc1ccc(-c2cc(Oc3cc(C#N)ccc3-c3ccc(CCN)cc3)n(C)n2)nc1 [Compound 164, 4-[4-(2-aminoethyl)phenyl]-3-[2-methyl-5-(5-methylpyridin-2-yl)pyrazol-3-yl]oxybenzonitrile]
10 to 1000 | Cn1nc(-c2ccc(F)cc2)cc1Oc1cc(C#N)ccc1-c1ccc(CCN)cc1 [Compound 165, 4-[4-(2-aminoethyl)phenyl]-3-[5-(4-fluorophenyl)-2-methylpyrazol-3-yl]oxybenzonitrile]
10 to 1000 | Cc1nc(Oc2cc(C#N)ccc2-c2ccc(CCN)nc2)cc(-c2ccccn2)n1 [Compound 166, 4-[6-(2-aminoethyl)pyridin-3-yl]-3-(2-methyl-6-pyridin-2-ylpyrimidin-4-yl)oxybenzonitrile]
10 to 1000 | Cc1nc(Oc2cc(C#N)ccc2-c2ccc(CCN)nc2)cc(-c2cccc(F)c2)n1 [Compound 167, 4-[6-(2-aminoethyl)pyridin-3-yl]-3-[6-(3-fluorophenyl)-2-methylpyrimidin-4-yl]oxybenzonitrile]
10 to 1000 | Cc1nc(Oc2cc(C#N)ccc2-c2csc(C(O)CN)n2)cc(N2CCOCC2)n1 (stereo not shown) [Compound 168, 4-[2-(2-amino-1-hydroxyethyl)-1,3-thiazol-4-yl]-3-(2-methyl-6-morpholin-4-ylpyrimidin-4-yl)oxybenzonitrile]
> 1000 | Cc1nc(Oc2cc(C#N)ccc2-n2cnc(C(O)CN)c2)cc(N2CCOCC2)n1 (stereo not shown) [Compound 169, 4-[4-(2-amino-1-hydroxyethyl)imidazol-1-yl]-3-(2-methyl-6-morpholin-4-ylpyrimidin-4-yl)oxybenzonitrile]
< 10 | Cc1nc(Oc2cc(C#N)ccc2-n2cc([C@@H](O)CN)cn2)cc(-c2ccccc2)n1 [Compound 170, 4-[4-[(1R)-2-Amino-1-hydroxyethyl]pyrazol-1-yl]-3-(2-methyl-6-phenylpyrimidin-4-yl)oxybenzonitrile]
< 10 | Cc1nc(Oc2cc(C#N)ccc2-n2cc([C@H](O)CN)cn2)cc(-c2ccccc2)n1 [Compound 171, 4-[4-[(1S)-2-amino-1-hydroxyethyl]pyrazol-1-yl]-3-(2-methyl-6-phenylpyrimidin-4-yl)oxybenzonitrile]
< 10 | Cc1cc(Oc2cc(C#N)ccc2-c2ccc(CCN)nc2)cc(N2CCOCC2)n1 [Compound 172, 4-[6-(2-aminoethyl)pyridin-3-yl]-3-(2-methyl-6-morpholin-4-ylpyridin-4-yl)oxybenzonitrile]
< 10 | Cc1cc(Oc2cc(C#N)ccc2-c2ccc(CCN)cn2)cc(N2CCOCC2)n1 [Compound 173, 4-[5-(2-aminoethyl)pyridin-2-yl]-3-(2-methyl-6-morpholin-4-ylpyridin-4-yl)oxybenzonitrile]
< 10 | Cn1nc(-c2ccccc2)cc1Oc1cc(C#N)ccc1-c1ccc(CCN)nc1 [Compound 174, 4-[6-(2-aminoethyl)pyridin-3-yl]-3-(2-methyl-5-phenylpyrazol-3-yl)oxybenzonitrile]
< 10 | Cn1nc(-c2ccccc2)cc1Oc1cc(C#N)ccc1-c1ccc(CCN)cn1 [Compound 175, 4-[5-(2-aminoethyl)pyridin-2-yl]-3-(2-methyl-5-phenylpyrazol-3-yl)oxybenzonitrile]
< 10 | Cn1nc(-c2ccccn2)cc1Oc1cc(C#N)ccc1-c1ccc(CCN)cn1 [Compound 176, 4-[5-(2-aminoethyl)pyridin-2-yl]-3-(2-methyl-5-pyridin-2-ylpyrazol-3-yl)oxybenzonitrile]
< 10 | Cn1nc(-c2cccnc2)cc1Oc1cc(C#N)ccc1-c1ccc(C(O)CN)cc1 (stereo not shown) [Compound 177, 4-[4-(2-amino-1-hydroxyethyl)phenyl]-3-(2-methyl-5-pyridin-3-ylpyrazol-3-yl)oxybenzonitrile]
10 to 1000 | Cn1nc(-c2cccnc2)cc1Oc1cc(C#N)ccc1-c1ccc(CCN)nc1 [Compound 178, 4-[6-(2-aminoethyl)pyridin-3-yl]-3-(2-methyl-5-pyridin-3-ylpyrazol-3-yl)oxybenzonitrile]
< 10 | Cn1nc(-c2cccnc2)cc1Oc1cc(C#N)ccc1-c1ccc(CCN)cn1 [Compound 179, 4-[5-(2-aminoethyl)pyridin-2-yl]-3-(2-methyl-5-pyridin-3-ylpyrazol-3-yl)oxybenzonitrile]
< 10 | Cc1ccc(-c2cc(Oc3cc(C#N)ccc3-c3ccc(C(O)CN)cc3)n(C)n2)nc1 (stereo not shown) [Compound 180, 4-[4-(2-amino-1-hydroxyethyl)phenyl]-3-[2-methyl-5-(5-methylpyridin-2-yl)pyrazol-3-yl]oxybenzonitrile]
10 to 1000 | Cc1ccc(-c2cc(Oc3cc(C#N)ccc3-c3ccc(CCN)nc3)n(C)n2)nc1 [Compound 181, 4-[6-(2-aminoethyl)pyridin-3-yl]-3-[2-methyl-5-(5-methylpyridin-2-yl)pyrazol-3-yl]oxybenzonitrile]
< 10 | Cc1ccc(-c2cc(Oc3cc(C#N)ccc3-c3ccc(CCN)cn3)n(C)n2)nc1 [Compound 182, 4-[5-(2-aminoethyl)pyridin-2-yl]-3-[2-methyl-5-(5-methylpyridin-2-yl)pyrazol-3-yl]oxybenzonitrile]
< 10 | Cn1nc(-c2ccc(F)cc2)cc1Oc1cc(C#N)ccc1-c1ccc(C(O)CN)cc1 (stereo not shown) [Compound 183, 4-[4-(2-amino-1-hydroxyethyl)phenyl]-3-[5-(4-fluorophenyl)-2-methylpyrazol-3-yl]oxybenzonitrile]
10 to 1000 | Cn1nc(-c2ccc(F)cc2)cc1Oc1cc(C#N)ccc1-c1ccc(CCN)nc1 [Compound 184, 4-[6-(2-aminoethyl)pyridin-3-yl]-3-[5-(4-fluorophenyl)-2-methylpyrazol-3-yl]oxybenzonitrile]
< 10 | Cn1nc(-c2ccc(F)cc2)cc1Oc1cc(C#N)ccc1-c1ccc(CCN)cn1 [Compound 185, 4-[5-(2-aminoethyl)pyridin-2-yl]-3-[5-(4-fluorophenyl)-2-methylpyrazol-3-yl]oxybenzonitrile]
< 10 | Cn1nc(-c2cccc(F)c2)cc1Oc1cc(C#N)ccc1-c1ccc(CCN)cc1 [Compound 186, 4-[4-(2-aminoethyl)phenyl]-3-[5-(3-fluorophenyl)-2-methylpyrazol-3-yl]oxybenzonitrile]
< 10 | Cn1nc(-c2cccc(F)c2)cc1Oc1cc(C#N)ccc1-c1ccc(CCN)nc1 [Compound 187, 4-[6-(2-aminoethyl)pyridin-3-yl]-3-[5-(3-fluorophenyl)-2-methylpyrazol-3-yl]oxybenzonitrile]
> 1000 | Cc1nc(Oc2cc(C#N)ccc2-c2ccc(CCN)nc2)cc(-c2cccnc2)n1 [Compound 188, 4-[6-(2-aminoethyl)pyridin-3-yl]-3-(2-methyl-6-pyridin-3-ylpyrimidin-4-yl)oxybenzonitrile]
